Target: MC4-R (Homo sapiens, UniProt P32245)
Experiment: cAMP Scintillation Proximity Assay (SPA) in cells expressing MC4-R
Type: cell-based
Conditions: intercellular cAMP concentration by SPA kit, read-out: in vitro potency (as measured by EC50 value)
Protocol: EC50 values of test compounds were determined by treating cells expressing MC4-R with test compound and lysing the cells and measuring intercellular cAMP concentration with an Amersham-Pharmacia RPA-559 cAMP Scintillation Proximity Assay (SPA) kit. The following compounds were synthesized and tested according to this assay. The following compounds are merely illustrative and should not be construed as limiting of the instant invention.

Sequence of MC4-R (P32245 whole entry, species assumed): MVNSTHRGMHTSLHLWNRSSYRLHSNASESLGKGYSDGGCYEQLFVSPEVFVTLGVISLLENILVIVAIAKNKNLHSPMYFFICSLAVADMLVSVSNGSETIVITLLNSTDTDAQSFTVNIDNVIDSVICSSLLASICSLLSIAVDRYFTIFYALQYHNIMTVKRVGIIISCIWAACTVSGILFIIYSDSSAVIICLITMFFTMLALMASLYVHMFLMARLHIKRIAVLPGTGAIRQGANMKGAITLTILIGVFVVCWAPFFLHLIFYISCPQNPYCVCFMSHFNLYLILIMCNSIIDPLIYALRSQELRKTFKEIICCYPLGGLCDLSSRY

EC50, < 3 µM:
C[C@@H]1[C@@H](N=C(Nc2ccc3c(c2)CN(CCc2ccc(Cl)cc2Cl)C3=O)N2CCN[C@@H](C)C2)C[C@H]2C[C@@H]1C2(C)C [Example 1, (3S)-N-{2-[2-(2,4-dichlorophenyl)ethyl]-1-oxo-2,3-dihydro-1H-isoindol-5-yl}-3-methyl-N′-[(1S,2S,3S,5R)-2,6,6-trimethylbicyclo[3.1.1]hept-3-yl]piperazine-1-carboximidamide]
C[C@@H]1[C@@H](N=C(Nc2ccc3c(c2)C(=O)N(CCc2ccc(Cl)cc2Cl)C3)N2CCN[C@@H](C)C2)C[C@H]2C[C@@H]1C2(C)C [Example 3, (3S )-N-{2-[2-(2,4-dichlorophenyl)ethyl]-3-oxo-2,3-dihydro-1H-isoindol-5-yl}-3-methyl-N′-[(1S,2S,3S,5R)-2,6,6-trimethylbicyclo[3.1.1]hept-3-yl]piperazine-1-carboximidamide]
C[C@@H]1[C@@H](N=C(Nc2ccc3c(c2)C(=O)N(Cc2ccc(Cl)cc2Cl)C3=O)N2CCN[C@@H](C)C2)C[C@H]2C[C@@H]1C2(C)C [Example 4, (3S)-N-[2-(2,4-dichlorobenzyl)-1,3-dioxo-2,3-dihydro-1H-isoindol-5-yl]-3-methyl-N′-[(1S,2S,3S,5R)-2,6,6-trimethylbicyclo[3.1.1]hept-3-yl]piperazine-1-carboximidamide]
C[C@@H]1[C@@H](N=C(Nc2ccc3c(c2)C(=O)N([C@H](CO)Cc2ccccc2)C3=O)N2CCN[C@@H](C)C2)C[C@H]2C[C@@H]1C2(C)C [Example 5, (3S)-N-{2-[(1S)-1-benzyl-2-hydroxyethyl]-1,3-dioxo-2,3-dihydro-1H-isoindol-5-yl}-3-methyl-N′-[(1S,2S,3S,5R)-2,6,6-trimethylbicyclo[3.1.1]hept-3-yl]piperazine-1-carboximidamide]
C[C@@H]1[C@@H](N=C(Nc2ccc3c(c2)C(=O)N([C@@H](CO)Cc2ccccc2)C3=O)N2CCN[C@@H](C)C2)C[C@H]2C[C@@H]1C2(C)C [Example 6, (3S)-N-{2-[(1R)-1-benzyl-2-hydroxyethyl]-1,3-dioxo-2,3-dihydro-1H-isoindol-5-yl}-3-methyl-N′-[(1S,2S,3S,5R)-2,6,6-trimethylbicyclo[3.1.1]hept-3-yl]piperazine-1-carboximidamide]
C[C@@H]1[C@@H](N=C(Nc2ccc3c(c2)C(=O)N([C@H](CO)Cc2ccc(Cl)cc2Cl)C3=O)N2CCN[C@@H](C)C2)C[C@H]2C[C@@H]1C2(C)C [Example 8, (3S )-N-{2-[(1S)-1-(2,4-dichlorobenzyl)-2-hydroxyethyl]-1,3-dioxo-2,3-dihydro-1H-isoindol-5yl}-3-methyl-N′-[(1S,2S,3S,5R)-2,6,6-trimethylbicyclo[3.1.1]hept-3-yl]piperazine-1-carboximidamide]
C[C@@H]1[C@@H](N=C(Nc2ccc3c(c2)CN([C@H](CO)Cc2ccc(Cl)cc2Cl)C3=O)N2CCN[C@@H](C)C2)C[C@H]2C[C@@H]1C2(C)C [Example 9, (3S)-N-{2-[(1S)-1-(2,4-dichlorobenzyl)-2-hydroxyethyl]-1-oxo-2,3-dihydro-1H-isoindol-5yl}-3-methyl-N′-[(1S,2S,3S,5R)-2,6,6-trimethylbicyclo[3.1.1]hept-3-yl]piperazine-1-carboximidamide]
COc1ccc(CCN2C(=O)c3ccc(NC(=N[C@H]4C[C@H]5C[C@@H]([C@@H]4C)C5(C)C)N4CCN[C@@H](C)C4)cc3C2=O)c(F)c1 [Example 10, (3S)-N-{2-[2-(2-fluoro-4-methoxyphenyl)ethyl]-1,3-dioxo-2,3-dihydro-1H-isoindol-5yl}-3-methyl-N′-[(1S,2S,3S,5R)-2,6,6-trimethylbicyclo[3.1.1]hept-3-yl]piperazine-1-carboximidamide]
C[C@@H]1[C@@H](N=C(Nc2ccc3c(c2)C(=O)N(CCc2ccc(F)cc2F)C3=O)N2CCN[C@@H](C)C2)C[C@H]2C[C@@H]1C2(C)C [Example 11, (3S)-N-{2-[2-(2,4-difluorophenyl)ethyl]-1,3-dioxo-2,3-dihydro-1H-isoindol-5yl}-3-methyl-N′-[(1S,2S,3S,5R)-2,6,6-trimethylbicyclo[3.1.1]hept-3-yl]piperazine-1-carboximidamide]
COc1ccc(CCN2C(=O)c3ccc(NC(=N[C@H]4C[C@H]5C[C@@H]([C@@H]4C)C5(C)C)N4CCN[C@@H](C)C4)cc3C2=O)c(OC)c1 [Example 12, (3S)-N-{2-[2-(2,4-dimethoxyphenyl)ethyl]-1,3-dioxo-2,3-dihydro-1H-isoindol-5-yl}-3-methyl-N′-[(1S,2S,3S,5R)-2,6,6-trimethylbicyclo[3.1.1]hept-3-yl]piperazine-1-carboximidamide]
Cc1ccc(CCN2C(=O)c3ccc(NC(=N[C@H]4C[C@H]5C[C@@H]([C@@H]4C)C5(C)C)N4CCN[C@@H](C)C4)cc3C2=O)c(C)c1 [Example 13, (3S)-N-{2-[2-(2,4-dimethylphenyl)ethyl]-1,3-dioxo-2,3-dihydro-1H-isoindol-5-yl}-3-methyl-N′-[(1S,2S,3S,5R)-2,6,6-trimethylbicyclo[3.1.1]hept-3-yl]piperazine-1-carboximidamide]
C[C@@H]1[C@@H](N=C(Nc2ccc3c(c2)C(=O)N([C@@H](CO)[C@@H](O)c2ccccc2)C3=O)N2CCN[C@@H](C)C2)C[C@H]2C[C@@H]1C2(C)C [Example 14, (3S)-N-{2-[(1S ,2S)-2-hydroxy-1-(hydroxymethyl)-2-phenylethyl]-1,3-dioxo-2,3-dihydro-1H-isoindol-5yl}-3-methyl-N′-[(1S,2S,3S,5R)-2,6,6-trimethylbicyclo[3.1.1]hept-3-yl]piperazine-1-carboximidamide]
C[C@@H]1[C@@H](N=C(Nc2ccc3c(c2)C(=O)N([C@H](CO)[C@H](O)c2ccccc2)C3=O)N2CCN[C@@H](C)C2)C[C@H]2C[C@@H]1C2(C)C [Example 15, (3S)-N-{2-[(1R,2R)-2-hydroxy-1-(hydroxymethyl)-2-phenylethyl]-1,3-dioxo-2,3-dihydro-1H-isoindol-5-yl}-3-methyl-N′-[(1S,2S,3S,5R)-2,6,6-trimethylbicyclo[3.1.1]hept-3-yl]piperazine-1-carboximidamide]
C[C@@H]1[C@@H](N=C(Nc2ccc3c(c2)C(=O)N([C@@H](CO)[C@H](O)c2ccccc2)C3=O)N2CCN[C@@H](C)C2)C[C@H]2C[C@@H]1C2(C)C [Example 16, (3S )-N-{2-[(1S,2R)-2-hydroxy-1-(hydroxymethyl)-2-phenylethyl]-1,3-dioxo-2,3-dixo-2,3-dihydro-1H-isoindol-5-yl}-3-methyl-N′-[(1S,2S,3S,5R)-2,6,6-trimethylbicyclo[3.1.1]hept-3-yl]piperazine-1-carboximidamide]
COc1ccc(CCN2Cc3cc(NC(=N[C@H]4C[C@H]5C[C@@H]([C@@H]4C)C5(C)C)N4CCN[C@@H](C)C4)ccc3C2=O)c(F)c1 [Example 17, (3S)-N-{2-[2-(2-fluoro-4-methoxyphenyl)ethyl]-1-oxo-2,3-dihydro-1H-isoindol-5-yl}-3-methyl-N′-[(1S,2S,3S,5R)-2,6,6-trimethylbicyclo[3.1.1]hept-3-yl]piperazine-1-carboximidamide]
C[C@@H]1[C@@H](N=C(Nc2ccc3c(c2)CN(CCc2ccc(F)cc2F)C3=O)N2CCN[C@@H](C)C2)C[C@H]2C[C@@H]1C2(C)C [Example 18, (3S)-N-{2-[2-(2,4-difluorophenyl)ethyl]-1-oxo-2,3-dihydro-1H-isoindol-5-yl}-3-methyl-N′-[(1S,2S,3S,5R)-2,6,6-trimethylbicyclo[3.1.1]hept-3-yl]piperazine-1-carboximidamide]
C[C@@H]1[C@@H](N=C(Nc2ccc3c(c2)C(=O)N(CCc2ccc(F)cc2F)C3)N2CCN[C@@H](C)C2)C[C@H]2C[C@@H]1C2(C)C [Example 19, (3S)-N-{2-[2-(2,4-difluorophenyl)ethyl]-3-oxo-2,3-dihydro-1H-isoindol-5-yl}-3-methyl-N′-[(1S,2S,3S,5R)-2,6,6-trimethylbicyclo[3.1.1]hept-3-yl]piperazine-1-carboximidamide]
Cc1ccc(CCN2Cc3cc(NC(=N[C@H]4C[C@H]5C[C@@H]([C@@H]4C)C5(C)C)N4CCN[C@@H](C)C4)ccc3C2=O)c(C)c1 [Example 20, (3S)-N-{2-[2-(2,4-dimethylphenyl)ethyl]-1-oxo-2,3-dihydro-1H-isoindol-5-yl}-3-methyl-N′-[(1S,2S,3S,5R)-2,6,6-trimethylbicyclo[3.1.1]hept-3-yl]piperazine-1-carboximidamide]
Cc1ccc(CCN2Cc3ccc(NC(=N[C@H]4C[C@H]5C[C@@H]([C@@H]4C)C5(C)C)N4CCN[C@@H](C)C4)cc3C2=O)c(C)c1 [Example 21, (3S)-N-{2-[2-(2,4-dimethylphenyl)ethyl]-3-oxo-2,3-dihydro-1H-isoindol-5-yl}-3-methyl-N′-[(1S,2S,3S,5R)-2,6,6-trimethylbicyclo[3.1.1]hept-3-yl]piperazine-1-carboximidamide]
C[C@@H]1[C@@H](N=C(Nc2ccc3c(c2)CCN(CCc2ccc(Cl)cc2Cl)C3=O)N2CCN[C@@H](C)C2)C[C@H]2C[C@@H]1C2(C)C [Example 22, (3S)-N-{2-[2-(2,4-dichlorophenyl)ethyl]-1-oxo-1,2,3,4-tetrahydroisoquinolin-6-yl}-3-methyl-N′-[(1S,2S,3S,5R)-2,6,6-trimethylbicyclo[3.1.1]hept-3-yl]piperazine-1-carboximidamide]
C[C@@H]1[C@@H](/N=C(\Nc2ccc3[nH]c(CCc4ccc(Cl)cc4Cl)nc3c2)N2CCN[C@@H](C)C2)C[C@H]2C[C@@H]1C2(C)C [Example 23, (3S)-N-{2-[2-(2,4-dichlorophenyl)ethyl]-1H-benzimidazol-5-yl}-3-methyl-N′-[(1S,2S,3S,5R)-2,6,6-trimethylbicyclo[3.1.1]hept-3-yl]piperazine-1-carboximidamide]

Reference: US6960582B2, “Guanidino compounds” (Chiron Corporation, priority 2001, dated 2005)
